{
  "source": "patent US11571485B2",
  "about": "“Peptides and antibodies for detecting changes in alzheimer's disease brain and methods of use thereof” (Sanford Burnham Prebys Medical Discovery Institute, priority 2016, dated 2023)",
  "key": {"[1]": {"tested_on": "acute penetrating brain injury", "test": "In vivo homing in acute penetrating brain injury model", "design": "species or system mouse", "details": "injected 6 hours after injury", "experimental": "(§1) All animal experiments were conducted under an approved protocol of the Institutional Animal Care and Use Committee of Sanford Burnham Prebys Medical Discovery Institute. The following transgenic mouse models were used for peptide homing studies—hAPP-J20 ([…], Nature genetics 1, 345-347 (1992)), Tg2576 (Jacobsen et al., Proc Natl Acad Sci USA 103, 5161-5166 (2006)), and mTHY-1-α-synuclein model (Chesselet et al., Neurotherapeutics 9, 297-314 (2012)). The P13 glioblastoma model is a patient-derived orthotopic xenograft model (Bougnaud et al., Oncotarget, (2016)). Spheroids were cultured as described previously (Bjerkvig et al., J Neurosurg 72, 463-475 (1990)). After two weeks in culture, spheroids (volume 2.5 μl) were stereotactically implanted into the brains of nude mice. Mice were used approximately 6 weeks after tumors were induced, when mice started presenting neurological symptoms. The acute brain injury model was setup as previously described (Mann et al., Nature communications 7, 11980 (2016)). Briefly, 8 to 10 week-old male BL6 mice were anaesthetized with 4% isoflurane in 70% N2O and 30% O2, and a 5-mm craniotomy was performed using a portable drill and a trephine over the right parietotemporal cortex using a stereotactic frame. […]"}, "[2]": {"tested_on": "P13 model of angiogenic glioblastoma", "test": "In vivo homing in P13 glioblastoma model", "design": "species or system mouse", "details": "systemically injected", "experimental": "as §1"}, "[3]": {"tested_on": "hAPP-J20 mouse brain sections", "test": "Tissue section overlay of FAM-labeled peptides on mouse brain sections", "type": "binding", "details": "hAPP-J20 vs age-matched wild-type mice, hippocampal region", "experimental": "PFA fixed sections were incubated in PBS for 10 minutes, followed by PBS-Triton-x-100 (0.2%) for 10 minutes. Sections were rinsed with PBST, mounted in a slide holder, and subsequently washed with PBS-T during 12 minutes. Slides were blocked with blocking buffer for 60 minutes at room temperature. Then, peptides were incubated at a concentration of 10 μg/mL dissolved in concentrated blocking buffer, for three hours at room temperature. Sections were then washed with three 4-minute washes of PBS-T, and subsequently fixed with PFA for 10 minutes, followed by three 3-minute washes with PBS-T. Sections were then incubated with primary antibody at 1/200 in diluted blocking buffer overnight at 4° C. Later, sections were washed with three 4-minute washes with PBS-T. Slides were then incubated with secondary antibody at 1/200 dilution in diluted blocking buffer for 30 minutes at room temperature, followed by three 4-minute washes of PBS-T. Sections were then counterstained with DAPI for 5 minutes, washed with PBS-T and mounted."}, "[4]": {"tested_on": "mTHY-1/α-synuclein overexpressing mouse model of Parkinson's disease", "test": "In vivo homing in Parkinson's disease mouse model", "details": "systemically injected", "experimental": "as §1"}, "[5]": {"molecular_target": "T1, recombinant human CTGF (Homo sapiens, UniProt P29279)", "T1 construct": "purchased Affymetrix 14-8503-80", "T1 sequence (P29279 253-349 limits assumed)": "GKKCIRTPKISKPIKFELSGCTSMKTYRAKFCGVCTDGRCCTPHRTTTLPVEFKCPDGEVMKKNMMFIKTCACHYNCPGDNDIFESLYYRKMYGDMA", "test": "ELISA binding to recombinant CTGF", "experimental": "FIG. 10 is a graphical representation relating to identification of a receptor for DAG. DAG binds to recombinant CTGF. FAM-DAG was incubated on ELISA plate coated with recombinant human CTGF at two different peptide concentrations of the FAM peptide alone (light gray bars), or in the presence of non-labeled DAG (0.5 mM) (dark gray bars). […] DAG was also shown to colocalize with CTGF. FAM-DAG was intravenously injected in 9-month-old hAPP-J20 and WT mice, allowed to circulate for 30 minutes, after which mice were perfused, and the brains were fixed, sectioned and stained for FAM (green) and CTGF (red).\nHuman CTGF recombinant protein (Affymetrix Cat #14-8503-80) was incubated on Nunc low-binding plates at concentration of 10 μg/ml for overnight at 4° C. Excess protein in the plates was removed by washing with PBS-T (PBS with 0.005% Tween 20). Plates were blocked with 200 μl of 3% non-fat milk in PBS for 1 hour at room temperature and washed with PBS-T once. Biotin-labeled peptide (at different concentrations) in PBS was added to the plate for 2 hours at 37° C. For peptide inhibition, non-labeled DAG peptide (0.5 mM) was added 30 minutes prior to addition of labeled peptide. The plates were washed with 100 μl PBS-T for three times to remove excess peptide. The bound peptide was detected by incubating with 100 μl of Vectastain ABC™ reagent (Vector labs, Burlingame, Calif.) for 30 minutes. The plate was washed with 100 μl PBS-T three times. Next, 100 μl of o-phenylenediamine dihydrochloride (OPD) silver and gold substrate (Sigma-Aldrich) was added to the wells and incubated at room temperature until visible color was observed (˜30 min). Adding 50 μl of 1 M H2SO4 stopped the reaction and the plate was read at 495 nm (FlexStation™ 3 Reader, Molecular Devices, Sunnyvale, Calif., USA)."}},
  "note": "“Also recorded” adds a separate entry of the source.",
  "data": [
    {"sequence": "CDAGRKQKC", "values": [
      {"measurement": "Homing to brain injury", "setting": "[1]", "value": "robustly homed to the perilesional area containing activated hypertrophic astrocytes"},
      {"measurement": "Tumor homing", "setting": "[2]", "value": "Strong tumor homing"},
      {"measurement": "Ex vivo peptide binding to brain sections", "setting": "[3]", "value": "bound to a much greater degree in the hippocampal region of hAPP-J20 mice than to age-matched wild-type mice; also recorded: far stronger than DAG binding to WT brain"},
      {"measurement": "Accumulation in Parkinson's model brain", "setting": "[4]", "value": "accumulated in GFAP-positive astrocytes"},
      {"measurement": "Binding to CTGF-coated plates", "setting": "[5]; ELISA", "value": "bound to CTGF-coated plates in a dose-dependent manner"},
      {"measurement": "Inhibition of CTGF binding by unlabeled DAG", "setting": "[5]; non-labeled DAG 0.5 mM", "value": "inhibited in the presence of an excess of unlabeled DAG"}
    ]}
  ]
}
